Source: patent US20220411362A1, “DITERPENOID COMPOUNDS THAT ACT ON PROTEIN KINASE C (PKC)” (K-Gen, Inc., priority 2019, published 2022)
Like-named read-outs stand apart in the source and are kept apart here.

How the values were obtained:
[1] = test system: HL-60 (Leukemia) cell line; test: Proliferation of HL-60; format: cell-based; details: for ratio of (IC50 of K01)/(IC50 of compound), HL-60: value in parenthesis
Description: (§1) The diterpenoid compounds were tested in A549, a non-small cell lung cancer cell line harboring a K-Ras activating mutation. Briefly, A549 cells at a density of 1,000 cells/well were seeded in 96-well plates and incubated at 37° C. for 24 hours. A series of different concentrations of compound stocks (500×) were prepared by 3-fold serial dilution in DMSO. These compounds were further diluted in culture media and then added to cells so that the final DMSO concentration was not exceeding 0.25%. After 96 hours of incubation, 50 μL of CellTiter Glo reagent (Promega) was added to each well and luminescence was measured after 10 minutes using EnVision (PerkinElmer). Luminescence from cells treated with DMSO alone was set as Max and % of inhibition was calculated as follows: Inhibition %=(Max−Sample value)/Max×100. Data was analyzed using XL-fit software (ID Business Solutions Ltd.) and IC50, relative IC50, and % of top inhibition was calculated. Some of the compounds in this disclosure were very potent in blocking proliferation of A549 lung cancer cells at low nM range. In addition, potency of inhibiting A549 proliferation correlated well with its binding affinity to PKCs for this series of compounds. In other words, higher affinity binders had stronger inhibitory effects on A549 proliferation. This further support the notion that activation, rather than inhibition, of certain PKC isoforms is required to block proliferation of cancer cells, some of which may harbor K-Ras mutations. This is in sharp contrast to previous literature and common belief that inhibition of PKC is necessary to block cancer cell growth (Kang, 2014, New Journal of Science, 2014:1-36). Data presented here is in agreement with recent findings that many loss-of-function but not gain-of-function mutations of PKC isoforms have been identified in many human cancers (Antal et al., 2015, Cell, 160:489-502).
(§2) The compounds in this disclosure were tested for their potency in blocking proliferation of a few other cancer cells lines, including K-Ras mutant pancreatic cell lines Panc2.13 and KP-4, leukemia cell line HL-60, and lymphoma cell lines Namalwa and Mino. Similar procedures as in Example 67 were followed. Initial cell numbers seeded in 96-well plates were different for different cell lines: 3000 cells/well for Panc2.13; 800-1000 cells/well for KP-4; 5000 cells/well for HL-60; 5000-10000 cells/well for Namalwa and Mino. A ratio ratio of (IC50 of K01)/(IC50 of compound) (data in parenthesis in Table 5) was used to normalize the compound potency from different assay batches to a common comparator […].

[2] = test system: Panc2.13 (Pancreatic) cell line; test: Proliferation of Panc2.13; format: cell-based; details: for IC50: read-out: IC50 in μM Panc2.13 (Pancreatic); for ratio of (IC50 of K01)/(IC50 of compound), Panc2.13: value in parenthesis
Description: as §1, §2

[3] = test system: Namalwa (Lymphoma) cell line; test: Proliferation of Namalwa; format: cell-based; details: for IC50: read-out: IC50 in μM Namalwa (Lymphoma); for ratio of (IC50 of K01)/(IC50 of compound), Namalwa: value in parenthesis
Description: as §1, §2

[4] = test system: A549 non-small cell lung cancer cell line; test: Proliferation of A549 (CellTiter Glo); format: cell-based; details: read-out: IC50 μM (A549 Cell Line)
Outline: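 Luminescent CellTiter Glo read-out after 96 h compound exposure of A549 cells plated at 1,000/well and rested 24 h at 37° C; DMSO kept ≤0.25%, dilutions 3-fold. Inhibition taken relative to DMSO-treated wells; IC50, relative IC50 and top inhibition derived by curve fitting.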

C1b domain of human PKCθ = molecular target: T1, C1b domain of human PKCθ (Homo sapiens, UniProt Q04759); test: Competitive 3H-PDBu binding to C1b domain of PKCθ
T1 construct: Genes encoding C1b domains of human PKCα, δ, ε, θ, and PKD1 (PKCμ) were synthesized; made in house; host or cells: E. coli BL21(DE3)
T1 sequence (Q04759 231-281 limits assumed): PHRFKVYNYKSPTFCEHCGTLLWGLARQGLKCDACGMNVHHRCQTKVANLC
Outline: (§3)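 Binding is reported as Ki, derived from IC50 using Cheng-Prusoff with the experimentally determined 3H-PDBu Kd of each protein preparation. Tracer displacement from recombinant human GST-C1b (E. coli BL21(DE3)) was read by filter scintillation after 10 min at 37° C plus 20 min on ice.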

C1b domain of human PKCα = molecular target: T2, C1b domain of human PKCα (Homo sapiens, UniProt P17252); test: biochemical; format: binding; details: 3H-PDBu competition
T2 construct: Genes encoding C1b domains of human PKCα, δ, ε, θ, and PKD1 (PKCμ) were synthesized; made in house; host or cells: E. coli BL21(DE3)
Outline: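 Competitive binding against 3H-PDBu tracer used recombinant GST-C1b fusion protein expressed in E. coli. Incubation ran 10 min at 37°C with shaking, then 20 min on ice, followed by filtration and scintillation counting of trapped 3H-PDBu. Affinity was derived using each protein preparation's experimentally determined Kd for 3H-PDBu.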

C1b domain of human PKCδ = molecular target: T3, C1b domain of human PKCδ (Homo sapiens, UniProt Q05655); test: Competitive 3H-PDBu binding to C1b domain of PKCδ; details: 3H-PDBu competition
T3 construct: Genes encoding C1b domains of human PKCα, δ, ε, θ, and PKD1 (PKCμ) were synthesized; made in house; host or cells: E. coli BL21(DE3)
Outline: as §3

[5] = molecular target: T4, C1b domain of human PKD1 (PKCμ) (Homo sapiens, UniProt Q15139); test: biochemical; format: binding
T4 construct: Genes encoding C1b domains of human PKCα, δ, ε, θ, and PKD1 (PKCμ) were synthesized; made in house; host or cells: E. coli BL21(DE3)
T4 sequence (Q15139 270-320 limits assumed): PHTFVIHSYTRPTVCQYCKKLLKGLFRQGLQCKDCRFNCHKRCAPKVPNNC
Outline: as §3

C1b domain of human PKCε = molecular target: T5, C1b domain of human PKCε (Homo sapiens, UniProt Q02156); test: Competitive 3H-PDBu binding to C1b domain of PKCε
T5 construct: Genes encoding C1b domains of human PKCα, δ, ε, θ, and PKD1 (PKCμ) were synthesized; made in house; host or cells: E. coli BL21(DE3)
Outline: as §3

[6] = test system: phosphorylation of PKCμ, PKCδ and Erk1/2 in A549 lung cancer cells; format: cell-based; details: 30 minutes
Description: Cells were then treated with different drugs at indicated concentrations for 30 minutes. […] Imagequant LAS4000 (GE) was used to scan membranes if secondary antibodies anti-mouse IgG HRP conjugate or anti-rabbit IgG HRP conjugate (dilutions from 1:2000-1:10000) were used. For ProteinSimple Wes system, manufacture's procedure was followed (ProteinSimple 12-230 kDa Wes Separation Module) for sample preparation, loading, running, and data analysis.
Phosphorylation of these sites has been linked to acute activation or catalytic activity of the PKC isoforms and Erk1/2. High level of phosphorylation indicates strong activation.

[7] = test system: Mino (Lymphoma) cell line; test: Proliferation of Mino; format: cell-based; details: for IC50: read-out: IC50 in μM Mino (Lymphoma); for ratio of (IC50 of K01)/(IC50 of compound), Mino: value in parenthesis
Description: as §1, §2

[8] = test system: KP-4 (Pancreatic) cell line; test: Proliferation of KP-4; format: cell-based
Description: as §1, §2

PANC1 cells = test: Sphere formation assay (cancer stemness); format: cell-based; details: Homo sapiens, PANC-1, read-out: concentration exhibiting at least 50% inhibition on the sphere forming efficiency
Description: A group of diterpenoid compounds of the present disclosure were tested to assess their effects on blocking formation of spheres from cancer cell lines such as PANC1, a K-Ras mutant pancreatic cell line. Briefly, PANC1 cells were harvested, re-suspended as single cell suspensions, counted and seeded into Ultra Low Attachment Culture 96-well plate (Corning, Cat #3474) at 100 cells/well in 100 μl of complete media (with 10% FBS) containing 2% Matrigel (Corning, Cat #354234) and DMSO or compounds. Six replicates per condition were seeded. The seeded cells were placed in the 37° C. tissue culture incubator. 10 μl of low serum containing media (with 0.1% FBS) was added to each well every week. Spheres formed after 3-4 weeks were counted. Sphere forming efficiency was expressed as percentage of # of spheres/# of cells seeded.

[9] = Homo sapiens, HL-60, read-out: IC50 in μM HL-60 (Leukemia)
[10] = Homo sapiens, KP-4, read-out: IC50 in μM KP-4 (Pancreatic)

T3 sequence (Q05655 230-280 limits assumed): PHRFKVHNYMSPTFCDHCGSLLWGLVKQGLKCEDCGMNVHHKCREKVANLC
T5 sequence (Q02156 242-292 limits assumed): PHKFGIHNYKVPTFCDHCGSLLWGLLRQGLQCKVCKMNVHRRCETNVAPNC

Compound	ratio of (IC50 of K01)/(IC50 of compound), HL-60 ([1]; HL-60)	ratio of (IC50 of K01)/(IC50 of compound), Panc2.13 ([2]; Panc2.13)	ratio of (IC50 of K01)/(IC50 of compound), Namalwa ([3]; Namalwa)	ratio of (IC50 of K01)/(IC50 of compound), Mino ([7]; Mino)	IC50 [1, 9]	IC50 [2]	IC50 [3]	IC50 ([4]; Homo sapiens, A549, 96 h)	Ki (C1b domain of human PKCθ)	Ki (C1b domain of human PKCα; Ki PKCα)	IC50 (PANC1 cells)	Ki (C1b domain of human PKCδ; Ki PKCδ)	Ki [5]	Ki (C1b domain of human PKCε)	IC50 ([7]; Homo sapiens, MINO)	IC50 [8, 10]	other results
CC1=C[C@H]2[C@@]3(O)[C@H](C)C[C@]4(OC(=O)[C@@H](N)Cc5ccccc5)[C@H]([C@@H]3C=C(CO)C[C@]2(O)C1=O)C4(C)C [Compound K101-C1303]	0.9	0.75	0.19	0.57													IC50 ([1]; HL-60, read-out: IC50 in μM HL-60 (Leukemia)): 0.2 to 0.6 µM; IC50 ([2]; Panc2.13): 1 to 2 µM; IC50 ([3]; Namalwa): 0.2 to 0.6 µM; IC50 ([4]; A549, 96 hours incubation, CellTiter Glo): 0.6 to 1 µM; Ki (C1b domain of human PKCθ; C1b domain of human PKCθ, 3H-PDBu competition, read-out: Ki PKCθ): 30 to 60 nM; Ki (C1b domain of human PKCα; read-out: Ki PKCα): 400 to 800 nM; Ki (C1b domain of human PKCδ; read-out: Ki PKCδ): 30 to 60 nM; Ki ([5]; C1b domain of human PKD1 (PKCμ), 3H-PDBu competition, read-out: Ki PKD1/PKCμ): 1 to 30 nM; Ki (C1b domain of human PKCε; C1b domain of human PKCε, 3H-PDBu competition, read-out: Ki PKCε): 100 to 200 nM; phosphorylation of PKC (PKD/PKCμ), PKCδ and Erk1/2 ([6]; 3 μM, Western blot): induced phosphorylation; IC50 ([7]; Mino): 0.1 to 0.2 µM; IC50 ([8]; KP-4, read-out: IC50 in μM KP-4 (Pancreatic)): 0.6 to 1 µM
CC1=C[C@H]2[C@@]3(O)[C@H](C)C[C@]4(OC(=O)[C@@H](N)CCC5CCCCC5)[C@H]([C@@H]3C=C(CO)C[C@]2(O)C1=O)C4(C)C [Compound K101-C1345]	27.7	20.5	7.42	33	0.01 to 0.03 µM	0.03 to 0.06 µM	0.001 to 0.01 µM	0.01 to 0.03 µM	1 to 30 nM	30 to 60 nM	≤ 150 nM	< 5 nM	< 5 nM	1 to 30 nM	0.001 to 0.01 µM	0.01 to 0.03 µM	
CC1=C[C@H]2[C@@]3(O)[C@H](C)C[C@]4(OC(=O)CCc5ncc(-c6ccc(Cl)cc6)o5)[C@H]([C@@H]3C=C(CO)C[C@]2(O)C1=O)C4(C)C [Compound K101-C1321]	5.71		1.15	5.36	0.06 to 0.1 µM		0.03 to 0.06 µM	0.03 to 0.06 µM				< 5 nM	< 5 nM		0.01 to 0.03 µM		Ki PKCα (C1b domain of human PKCα): E (E=>60 nM and ≤10 nM); phosphorylation of PKC (PKD/PKCμ), PKCδ and Erk1/2 ([6]; 0.3 μM, Western blot (FIG. 1)): induced high levels of phosphorylation
CC1=C[C@H]2[C@@]3(O)[C@H](C)C[C@]4(OC(=O)C(C)(C)C)[C@H]([C@@H]3C=C(CO)C[C@]2(O)C1=O)C4(C)C [Compound K101-C1308]	5.29	6.29	1.38	6.82	0.06 to 0.1 µM	0.1 to 0.2 µM	0.03 to 0.06 µM	0.06 to 0.1 µM	30 to 60 nM	800 to 1000 nM	≤ 150 nM	1 to 30 nM	5 to 10 nM	1 to 30 nM	0.01 to 0.03 µM	0.1 to 0.2 µM	
CC1=C[C@H]2[C@@]3(O)[C@H](C)C[C@]4(OC(=O)[C@@H](N)C(C)(C)C)[C@H]([C@@H]3C=C(CO)C[C@]2(O)C1=O)C4(C)C [Compound K101-C1346]								0.2 to 0.6 µM	30 to 60 nM	200 to 400 nM	≤ 1500 nM	1 to 30 nM	5 to 10 nM				
